Measurements taken from patent US20110177161A1, “PHARMACEUTICAL COMPOSITIONS OF [5(S)-(2'-HYDROXYETHOXY)-20(S)-CAMPTOTHECIN” (DR. REDDY'S LABORATORIES LIMITED, priority 2007, published 2011).
Converted amounts (≈) assume the structure as drawn.

What was measured:
physchem [1] = assay type: physicochemical
Procedure: Excess amounts of DRF-(5S,20S)-1042 were added to aqueous solutions of HPBCD with concentrations ranging from 0-40% w/v and the suspensions were shaken at 200 rpm and 25° C. in an incubator shaker, till no further DRF-(5S,20S)-1042 went into solution. The solutions were filtered through a 0.22 μm membrane filter and subjected to analysis by HPLC by a process described above. The results are described in Table 3 and in FIG. 1.

in vivo [2] = experiment: in vivo; design: species or system male Wistar rats; details: male, Wistar, rat, po, 2.5 mg/kg
Procedure: 5(S)-CPT (2.5 mg/kg) and 5(RS)-CPT (5 mg/kg, including 2.5 mg/kg of 5(S)-CPT in the mixture) were been administered to male Wistar Rats to evaluate oral pharmacokinetics.
(§1) Male Wistar rats, 6-8 weeks of age and weighing between 205 and 218 g were divided into groups of four rats. The oral pharmacokinetics test was carried out in overnight fasted condition and intravenous pharmacokinetics was carried out in fed condition. The test drugs were administered as a solution by oral gavage or lateral tail vein injection. Sparse blood samples of about 250 microliters were collected from retro-orbital plexus at designated time points into microcentrifuge tubes containing 25 microliters of EDTA. Plasma was separated by centrifuging blood at 12,800 rpm for 2 min and refrigerated until analysis.
(§2) Samples were tested for the presence of the test drug as follows. An aliquot of 100 μL plasma (stored at 8° C.) was precipitated with 400 μL of cold methanol for the estimation of total (lactone+carboxylate). […] Concentrations of the test drug were calculated from the linearity plotted by spiking known concentrations of the test drug in blank rat plasma. The pharmacokinetics of the test drug was calculated using non-compartmental analysis.

[3] = system: 34 human cancer cell lines; experiment: In vitro cell growth assay, Sulphorhodamine B (SRB); assay type: cell-based; details: 48 h exposure
Procedure: Cell proliferation was evaluated by Sulphorhodamine B (SRB) assay where the amount of dye bound to the cells after staining gives a measure of cell growth. Refer to: JNCI, vol 83, No. 11, Jun. 5, 1991, which is incorporated herein by reference.
Briefly, cells (34 human cancer cell lines represented by bladder, breast, CNS, colon, epidermoid, lung, ovarian, melanoma, prostate, renal and uterine cancers) were seeded on a 96-well cell culture plates at a concentration of 10,000 cells per well and incubated at 37 degree C. in a CO2 incubator. Twenty-four hours later, cells were treated with different concentrations of […] dissolved in DMSO to a final concentration of 0.05% in the culture medium and exposed for 48 h. Cells were fixed by adding ice-cold 50% trichloroacetic acid (TCA) and incubating for 1 h at 4° C. The plates were washed with distilled water, air dried and stained with SRB solution (0.4% wt/vol in 1% Acetic acid) for 10 min at room temperature. Unbound SRB was removed by washing thoroughly with 1% acetic acid and the plates were air-dried. The bound SRB stain was solubilized with 10 mM Tris buffer, and the optical densities were read on a spectrophotometric plate reader at a single wavelength of 515 nm. […] From the optical densities the percentage growths were calculated using the following formulae: […]

physchem [4] = assay type: physicochemical; details: thermodynamic from solid
Procedure: Excess amounts of DRF-(5S,20S)-1042 were added to different media including water, fasting state simulated intestinal fluid (FaSIF), fed state simulated intestinal fluid (FeSIF), aqueous sodium carbonate solution (0.1M, pH12.6), aqueous sodium hydroxide solution (0.1M, pH 12.73) and the suspensions were shaken at room temperature for 24 hours at 200 rpm in a mechanical shaker water bath till no further drug went into solution when checked visually. The suspensions were filtered through a 0.22 μm membrane filter (supplied by Millipore) and the content of DRF-(5S,20S)-1042 was quantified by using the HPLC method described above.

[5] = system: Human bone marrow mononuclear cells; experiment: Human bone marrow assay (CFU-GM colonies); assay type: cell-based; details: GI90 for human cell toxicity to GI50 for anticancer activity
Procedure: Methocult.TM. GF (Cat No: H4534, Poietics, Biowhittakar, USA) medium comprising Methycellulose in iscove's MDM, Fetal bovine serum, Bovine serum albumin, 2-Mercaptoethanol, L-Glutamine, rhStem cell factor, rhGM-CSF and rhIL-3 was used for the assay. Human bone marrow mononuclear cells (Cat No. 2M-125C, Poietics, Biowhittakar, USA) were mixed with Methocult GF and the cell density was adjusted to 3×10^5 cells/ml. From this preparation, 500 μL aliquots were made and […] of 20× drug solution or vehicle was added to each aliquot and mixed thoroughly. 100 μL of clonogenic medium was plated into each well and the plates were allowed to gel at 4° C. for 15 minutes. Plates were incubated at 37 degree C. in a fully humidified atmosphere of 5% CO2 in an incubator for 14 days. CFU-GM colonies were counted under an inverted microscope as aggregates of 50 cells or more. The percentage colony inhibition was calculated using the following formula: 100−[(number of colonies in drug treated wells/Number of colonies in control wells)×100].

in vivo [6] = experiment: in vivo; design: species or system Swiss Albino mice; details: Swiss Albino, mouse, po, 2.5 mg/kg
Procedure: 5(S)-CPT (2.5 mg/kg) and 5(RS)-CPT (5 mg/kg, including 2.5 mg/kg of 5(S)-CPT in the mixture) were been administered to Swiss Albino mice to evaluate oral pharmacokinetics.
as §1, with “Swiss Albino mice, 3-6” for “Male Wistar rats, 6-8”, “28-34” for “205 and 218”, “used in the study. Twelve mice were used per study.” for “divided into groups of four rats.”
as §2, with “100µl” for “100 μL”, “400µl” for “400 μL”

Q: With CC[C@@]1(O)C(=O)OCc2c1cc1n(c2=O)[C@@H](OCCO)c2cc3ccccc3nc2-1 [DRF-(5S,20S)-1042, 5(S)-(2′-hydroxyethoxy)-20(S)-camptothecin] as the molecule, how does the “increase in aqueous solubility and solubility in bio-relevant media vs uncomplexed state” value (physchem [1]) read?
A: Its value is “more than 50 fold”.

Q: And the “increase in aqueous solubility when compared with water alone” value (physchem [1])?
A: The value was “over 50 fold”.

Q: What about the solubility (physchem [1]; 25 °C, water, thermodynamic from solid, Solubility) of the same molecule?
A: The solubility was 20 µg/mL (≈ 0.049 mM).

Q: What about the AUC (in vivo [2]) of the same molecule?
A: Its AUC is 1.21 µM·h.

Q: What about the GI50 [3] of the same molecule?
A: The GI50 was 5 µM.

Q: What about the solubility at 24 h (physchem [4]; fessif) of the same molecule?
A: Its solubility at 24 h is roughly 41 µg/mL (≈ 0.1 mM).

Q: What about the solubility at 24 h (physchem [4]; pH 12.6, aqueous buffer) of the same molecule?
A: Its solubility at 24 h is 4160 µg/mL (≈ 10.2 mM).

Q: And the solubility at 24 h (physchem [4]; pH 12.73, aqueous buffer)?
A: The solubility at 24 h was 6670 µg/mL (≈ 16.3 mM).

Q: And the “Safety Margin GI90/GI50” value [5]?
A: The value was 0.14.

Q: And the AUC (in vivo [6])?
A: The AUC was 1.1 µM·h.
